Reference: patent US4795751A, “5-substituted-6,8-difluoroquinolines useful as antibacterial agents” (Dainippon Pharmaceutical Co., Ltd., priority 1985, dated 1989)
In brackets after ≈: the same amount, converted by molar mass.

Key:
Format in all cases: cell-based
[1] = system: M. hyorhinis BST-7; experiment: Anti-Mycoplasma activity, twofold agar-dilution method; conditions: Mesomycoplasma hyorhinis, BST7, 72 h, Chanock agar, 37° C., 3 days aerobically, calculated for free base, read-out: minimum inhibitory concentration (MIC)
Method: (§1) The numbers in the table show minimum inhibitory concentrations (MIC) (μg/ml), calculated for free base. The minimum inhibitory concentration was determined by the twofold agar-dilution method using Chanock agar. Three μl of a culture of test organisms in Chanock broth was inoculated onto 10-ml drug-containing agar layers in petri dishes. Growth of Mycoplasma was observed after incubation at 37° C. under the conditions shown hereinbelow. The MIC was defined as the lowest drug concentration which prevented growth of Mycoplasma microscopically.

[2] = system: M. orale CH-19299; experiment: as above; conditions: 48 h, Chanock agar, 37° C., 2 days anaerobically, calculated for free base, read-out: minimum inhibitory concentration (MIC)
Method: as §1

[3] = system: M. pneumoniae Mac; experiment: as above; conditions: Mycoplasmoides pneumoniae, 168 h, Chanock agar, 37° C., 7 days aerobically, calculated for free base, read-out: minimum inhibitory concentration (MIC)
Method: as §1

[4] = system: M. hominis PG-21; experiment: as above; conditions: Metamycoplasma hominis, PG21, 48 h, Chanock agar, 37° C., 2 days anaerobically, calculated for free base, read-out: minimum inhibitory concentration (MIC)
Method: as §1

[5] = system: M. salivarium; experiment: as above; conditions: 48 h, read-out: minimum inhibitory concentration (MIC)
Method: as §1

[6] = system: M. buccale CH-20247; experiment: as above; conditions: 48 h, Chanock agar, 37° C., 2 days anaerobically, calculated for free base, read-out: minimum inhibitory concentration (MIC)
Method: as §1

[7] = system: M. fermentans PG-18; experiment: as above; conditions: Mycoplasmopsis fermentans, PG18, 48 h, Chanock agar, 37° C., 2 days anaerobically, calculated for free base, read-out: minimum inhibitory concentration (MIC)
Method: as §1

[8] = system: Campylobacter jejuni 19806; experiment: Antibacterial activity against Campylobacter jejuni, twofold agar-dilution method; conditions: strain 19806, blood-containing Mueller-Hinton agar, 48 h, 37° C. microaerobically, calculated for free base, read-out: minimum inhibitory concentration (MIC)
Method: (§2) The numbers in the table show minimum inhibitory concentrations (MIC) (μg/ml), calculated for free base. The minimum inhibitory concentration was determined by the twofold agar-dilution method using blood-containing Mueller-Hinton agar. One loopful of a culture of test organisms in Mueller-Hinton broth was inoculated onto 10-ml drug-containing agar layer in petri dishes. Bacterial growth was observed after 48-hour incubation at 37° C. microaerobically. The MIC was defined as the lowest drug concentration which prevented visible bacterial growth.

[9] = system: Campylobacter jejuni 10; experiment: as above; conditions: strain 10, blood-containing Mueller-Hinton agar, 48 h, 37° C. microaerobically, calculated for free base, read-out: minimum inhibitory concentration (MIC)
Method: as §2

[10] = system: Campylobacter jejuni A-24-2; experiment: as above; conditions: A242, strain A-24-2, blood-containing Mueller-Hinton agar, 48 h, 37° C. microaerobically, calculated for free base, read-out: minimum inhibitory concentration (MIC)
Method: as §2

[11] = system: Campylobacter jejuni 10812; experiment: as above; conditions: strain 10812, blood-containing Mueller-Hinton agar, 48 h, 37° C. microaerobically, calculated for free base, read-out: minimum inhibitory concentration (MIC)
Method: as §2

[12] = system: Campylobacter jejuni A-11-3; experiment: as above; conditions: A113, strain A-11-3, blood-containing Mueller-Hinton agar, 48 h, 37° C. microaerobically, calculated for free base, read-out: minimum inhibitory concentration (MIC)
Method: as §2

[13] = system: Campylobacter jejuni 20; experiment: as above; conditions: strain 20, blood-containing Mueller-Hinton agar, 48 h, 37° C. microaerobically, calculated for free base, read-out: minimum inhibitory concentration (MIC)
Method: as §2

[14] = system: Campylobacter jejuni 77; experiment: as above; conditions: strain 77, blood-containing Mueller-Hinton agar, 48 h, 37° C. microaerobically, calculated for free base, read-out: minimum inhibitory concentration (MIC)
Method: as §2

[15] = system: Campylobacter jejuni 12; experiment: as above; conditions: strain 12, blood-containing Mueller-Hinton agar, 48 h, 37° C. microaerobically, calculated for free base, read-out: minimum inhibitory concentration (MIC)
Method: as §2

[16] = system: Campylobacter jejuni 19804; experiment: as above; conditions: strain 19804, blood-containing Mueller-Hinton agar, 48 h, 37° C. microaerobically, calculated for free base, read-out: minimum inhibitory concentration (MIC)
Method: as §2

[17] = system: Campylobacter jejuni 19807; experiment: as above; conditions: strain 19807, blood-containing Mueller-Hinton agar, 48 h, 37° C. microaerobically, calculated for free base, read-out: minimum inhibitory concentration (MIC)
Method: as §2

[18] = system: Campylobacter jejuni A-19-3; experiment: as above; conditions: A193, strain A-19-3, blood-containing Mueller-Hinton agar, 48 h, 37° C. microaerobically, calculated for free base, read-out: minimum inhibitory concentration (MIC)
Method: as §2

[19] = system: Campylobacter jejuni 19805; experiment: as above; conditions: strain 19805, blood-containing Mueller-Hinton agar, 48 h, 37° C. microaerobically, calculated for free base, read-out: minimum inhibitory concentration (MIC)
Method: as §2

[20] = system: Campylobacter jejuni 170; experiment: as above; conditions: strain 170, blood-containing Mueller-Hinton agar, 48 h, 37° C. microaerobically, calculated for free base, read-out: minimum inhibitory concentration (MIC)
Method: as §2

[21] = system: A. laidlawii PG-8; experiment: Anti-Mycoplasma activity, twofold agar-dilution method; conditions: Acholeplasma laidlawii, PG8, 48 h, Chanock agar, 37° C., 2 days aerobically, calculated for free base, read-out: minimum inhibitory concentration (MIC)
Method: as §1
(§3) Mycoplasma arginini and Acholeplasma laidlawii

[22] = system: M. arginini G-230; experiment: as above; conditions: Mycoplasmopsis arginini, G230, 48 h, Chanock agar, 37° C., 2 days aerobically, calculated for free base, read-out: minimum inhibitory concentration (MIC)
Method: as §1, §3

For `CC1CN(c2c(F)c(N)c3c(=O)c(C(=O)O)cn(C4CC4)c3c2F)CCN1` (stereo not shown) [Compound 1, 5-Amino-1-cyclopropyl-6,8-difluoro-7-(3-methyl-1-piperazinyl)-1,4-dihydro-4-oxoquinoline-3-carboxylic acid], the MIC [1] was 0.2 µg/mL (≈ 0.529 µM), the MIC [2] was 0.2 µg/mL (≈ 0.529 µM) and the MIC [3] was 0.025 µg/mL (≈ 0.0661 µM). The MIC [4] was 0.05 µg/mL (≈ 0.132 µM), the MIC [5] was 0.2 µg/mL (≈ 0.529 µM) and the MIC [6] was 0.0125 µg/mL (≈ 0.033 µM). It also gave an MIC [7] of 0.0063 µg/mL (≈ 0.0166 µM), an MIC [8] of 0.0125 µg/mL (≈ 0.033 µM) and an MIC [9] of 0.0125 µg/mL (≈ 0.033 µM). For the same compound, the MIC [10] was 0.05 µg/mL (≈ 0.132 µM), the MIC [11] was 0.025 µg/mL (≈ 0.0661 µM) and the MIC [12] was 0.05 µg/mL (≈ 0.132 µM). The MIC [13] was 0.0063 µg/mL (≈ 0.0166 µM), the MIC [14] was 0.0125 µg/mL (≈ 0.033 µM) and the MIC [15] was 0.0125 µg/mL (≈ 0.033 µM). The MIC [16] was 0.0125 µg/mL (≈ 0.033 µM), the MIC [17] was 0.0125 µg/mL (≈ 0.033 µM) and the MIC [18] was 0.05 µg/mL (≈ 0.132 µM). It also gave an MIC [19] of 0.0125 µg/mL (≈ 0.033 µM), an MIC [20] of 0.0125 µg/mL (≈ 0.033 µM) and an MIC [21] of 0.1 µg/mL (≈ 0.264 µM). It also gave an MIC [22] of 0.1 µg/mL (≈ 0.264 µM).
